Experimental data as given in publication PMC10526274, “Epithelial-Immune Cell Crosstalk Determines the Activation of Immune Cells In Vitro by the Human Cathelicidin LL-37 at Low Physiological Concentrations” (Biomolecules, 2023).
Values joined by “and” are separate entries in the source; they are usually repeats but may differ in a detail not shown here. Equal entries are not always repeated.

Test system: Caco-2/moDCs co-culture
Test: Multiplex xMAP cytokine levels, Caco-2/moDCs co-culture stimulated with LL-37
Assay type: cell-based, human
Settings: moDCs/Caco-2 co-culture, 1 µM LL-37, 24 h, n=2
Procedure: Caco-2 cell line (ATCC HTB-37) was cultured in a humidified CO2-incubator (5% CO2, 37 °C) in the complete DMEM/F12 (1:1) medium (Gibco, Waltham, MA, USA) containing 10% fetal bovine serum (FBS, Gibco) and 1X antibiotic–antimycotic solution (Gibco). To stabilize the cell phenotype, Caco-2 cells have been subcultivated three times before seeding on the filter supports. Then, Caco-2 cells were seeded at a density of 2 × 10^5 cells/cm^2 onto 24-well Millicell cell culture inserts (PC, 0.4-μm pore size, 0.6 cm^2 surface area, cat. #PIHP01250) (Millipore, Burlington, MA, USA), precoated with 0.2% bovine gelatin (Sigma-Aldrich, Saint Louis, MO, USA). After seeding, Caco-2 cells were grown in the same complete medium with re-feeding every 2–3 days until polarization of the monolayer occurred. The functional polarity of the monolayers was developed when transepithelial electrical resistance (TEER) between the apical and basolateral surfaces of the monolayers reached […] as measured by the electrical resistance system Millicell-ERS Voltohmmeter (Millipore, Burlington, MA, USA). Grown cell monolayers were used in transport and cytokine production experiments between the 21st and 29th days.
Peripheral blood mononuclear cells (PBMCs) from a healthy donor were purchased from the American Type Culture Collection (ATCC PCS-800-011). Blood monocytes were isolated from PBMCs by plastic adhesion. Mature monocyte-derived dendritic cells (moDCs) were generated in vitro from peripheral blood monocytes, according to Nair et al.. Briefly, monocytes were cultured in a humidified CO2-incubator (5% CO2, 37 °C) in the complete RPMI-1640 medium (Gibco) with 10% FBS, antibiotics, and supplemented with a cytokine cocktail containing 500 U/mL rhIL-4 and 800 U/mL rhGM-CSF (both Sci-Store, Moscow, Russia). On the third day, the medium was replaced by the same fresh medium with FBS, antibiotics, and the cytokine cocktail. Induction of maturation of the immature monocyte-derived dendritic cells was performed on the 5th day by replacing the medium with the complete RPMI-1640 medium (Gibco) with 10% FBS and antibiotics, supplemented with a cytokine cocktail containing 500 U/mL rhIL-4, 800 U/mL rhGM-CSF (both Sci-Store, Moscow, Russia), and 100 U/mL rhTNF-α (Sigma-Aldrich), and subjected to subsequent incubation of the culture for 4 more days.
Primary blood monocytes, moDCs, and NKT cells were seeded in 600 µL of complete RPMI-1640 with 10% Human AB serum (Capricorn Scientific, Ebsdorfergrund, Germany) and supplemented with 1X antibiotic–antimycotic solution into the wells of 24-well plates at a density of 3–7 × 10^5 cells/well 24 h before the experiment. Then, 24 h later, the medium in each well was replaced by the same medium with 1 µM of LL-37 for the sample wells or fresh medium alone for the control wells, and the permeable inserts with the Caco-2 monolayer with TEER > 400 Ω × cm^2, containing 400 μL of the complete medium in their apical chamber, were immediately placed into the appropriate wells. Also, inserts with the Caco-2 monolayer were placed in cell-free wells of 24-well plates in the same complete RPMI-1640 medium with or without 1 µM of LL-37 as controls. Cells were kept in a CO2-incubator (5% CO2, 37 °C) for another 24 h. Then, culture medium from each well was collected, centrifuged, and frozen at −70 °C.
To quantitatively evaluate a broad spectrum of analytes secreted by human cell cultures at the protein level, multiplex xMAP technology was used. […]

## LL-37: the only human cathelicidin, host defense antimicrobial peptide of 37 a.a. residues, produced by solid-phase peptide synthesis
Control 0.75
  IL-2 level: 1.12 pg/mL
Control 0.87
  FLT-3L level: 0.93 pg/mL
Control 0.91
  IL-3 level: 0.91 pg/mL
Control 2
  IFNg level: 2.28 pg/mL
Control 2.49
  IL-18 level: 1.42 pg/mL
Control 3.19
  IL-15 level: 3.42 pg/mL
Control 4.19
  IL-4 level: 6.58 pg/mL
Control 4.46
  IL-5 level: 2.93 pg/mL
Control 5.8
  TGF-a level: 5.22 pg/mL
Control 5.83
  IL-1b level: 5.83 pg/mL
Control 6.26
  EGF level: 6.51 pg/mL
Control 7.45
  IL-9 level: 7.45 pg/mL
Control 8.64
  IFNa2 level: 10.16 pg/mL
Control 9.34
  TNFb level: 15.39 pg/mL
Control 10.7
  GM-CSF level: 8.75 pg/mL
Control 11.1
  IL-1RA level: 13.57 pg/mL
Control 16.25
  G-CSF level: 14.89 pg/mL
Control 22.95
  Fractalkine level: 25.92 pg/mL
Control 23.82
  IL-6 level: 26.83 pg/mL
Control 26.11, p = 0.10
  IL-22 level: 37 pg/mL and 37.22 pg/mL
Control 41.39
  TNFa level: 44.26 pg/mL
Control 43.59
  IL-13 level: 50.71 pg/mL
Control 47.27
  FGF-2 level: 47.27 pg/mL
Control 57.35
  IL-12 (p40) level: 55.01 pg/mL
Control 60.81
  GROa level: 70.33 pg/mL
Control 63.66
  IL-27 level: 70.72 pg/mL
Control 72.4
  PDGF-AB/BB level: 83.52 pg/mL
Control 81.69, p = 0.0035
  IL-10 level: 52 pg/mL and 52.63 pg/mL
Control 90.92
  IP-10 level: 118.06 pg/mL
Control 95.47
  sCD40L level: 95.47 pg/mL
Control 142.05
  RANTES level: 223.43 pg/mL
Control 168.7
  M-GSF level: 172.56 pg/mL
Control 252.85
  PDGF-AA level: 237.55 pg/mL
Control 376.42
  MCP-3 level: 372.12 pg/mL
Control 723.09
  VEGFa level: 1786 pg/mL
Control 1271
  MIP-1a level: 1487 pg/mL
Control 1340
  MIP-1b level: 1789 pg/mL
Control 2519
  MCP-1 level: 1925 pg/mL
Control 2799
  IL-8 level: 3052 pg/mL
Control 25746
  MIG level: 25834 pg/mL
Control <0.30
  IL-7 level: <0.30↓ pg/ml
Control <0.70
  IL-17A level: <0.70↓ pg/ml
Control <1.30
  IL-1a level: <1.30↓ pg/ml
Control <1.71
  IL-12 (p70) level: <1.71↓ pg/ml
Control <2.91
  Eotaxin level: 3.03 pg/mL
Control <12.19
  IL-17F level: <12.19↓ pg/ml
Control <19.43
  IL-17E/IL-25 level: <19.43↓ pg/ml
Control >14590
  MDC level: 6291 pg/mL
